{"source": "paper PMC5418314", "about": "“First-in-human phase I study of SOR-C13, a TRPV6 calcium channel inhibitor, in patients with advanced solid tumors” (Investigational New Drugs, 2017)", "key": {"[1]": {"assay": "Phase I plasma pharmacokinetics", "type": "in vivo, human", "settings": "human, plasma, iv, 90-min IV infusion, plasma LC-MS", "description": "Blood samples were taken on Days 1, 3, 8 and 10 of Cycle 1 to assess the pharmacokinetic (PK) profile of SOR-C13 at the various doses used. Plasma samples for the IV 20 min infusion were taken at pre-infusion, 5, 15 min after the start of infusion and post-infusion at 2, 5, 10 and 30 min and 1, 4 h. Plasma samples for SOR-C13 analysis for the 90 min infusion were taken pre-infusion, at 5, 15 and 45 min after the start of infusion, and at 2, 5, 10 and 30 min post-infusion. Since the infusion for the majority of patients, and further studies will be IV 90 min only PK data for this infusion time are presented. Validated liquid chromatography-mass spectrometry analysis provided the plasma concentration/time data."}, "[2]": {"test_system": "voltage-gated sodium channels", "assay": "voltage-gated sodium channel activity", "type": "biochemical"}, "hERG": {"target": "hERG (Homo sapiens, UniProt Q12809)", "sequence (Q12809 whole entry)": "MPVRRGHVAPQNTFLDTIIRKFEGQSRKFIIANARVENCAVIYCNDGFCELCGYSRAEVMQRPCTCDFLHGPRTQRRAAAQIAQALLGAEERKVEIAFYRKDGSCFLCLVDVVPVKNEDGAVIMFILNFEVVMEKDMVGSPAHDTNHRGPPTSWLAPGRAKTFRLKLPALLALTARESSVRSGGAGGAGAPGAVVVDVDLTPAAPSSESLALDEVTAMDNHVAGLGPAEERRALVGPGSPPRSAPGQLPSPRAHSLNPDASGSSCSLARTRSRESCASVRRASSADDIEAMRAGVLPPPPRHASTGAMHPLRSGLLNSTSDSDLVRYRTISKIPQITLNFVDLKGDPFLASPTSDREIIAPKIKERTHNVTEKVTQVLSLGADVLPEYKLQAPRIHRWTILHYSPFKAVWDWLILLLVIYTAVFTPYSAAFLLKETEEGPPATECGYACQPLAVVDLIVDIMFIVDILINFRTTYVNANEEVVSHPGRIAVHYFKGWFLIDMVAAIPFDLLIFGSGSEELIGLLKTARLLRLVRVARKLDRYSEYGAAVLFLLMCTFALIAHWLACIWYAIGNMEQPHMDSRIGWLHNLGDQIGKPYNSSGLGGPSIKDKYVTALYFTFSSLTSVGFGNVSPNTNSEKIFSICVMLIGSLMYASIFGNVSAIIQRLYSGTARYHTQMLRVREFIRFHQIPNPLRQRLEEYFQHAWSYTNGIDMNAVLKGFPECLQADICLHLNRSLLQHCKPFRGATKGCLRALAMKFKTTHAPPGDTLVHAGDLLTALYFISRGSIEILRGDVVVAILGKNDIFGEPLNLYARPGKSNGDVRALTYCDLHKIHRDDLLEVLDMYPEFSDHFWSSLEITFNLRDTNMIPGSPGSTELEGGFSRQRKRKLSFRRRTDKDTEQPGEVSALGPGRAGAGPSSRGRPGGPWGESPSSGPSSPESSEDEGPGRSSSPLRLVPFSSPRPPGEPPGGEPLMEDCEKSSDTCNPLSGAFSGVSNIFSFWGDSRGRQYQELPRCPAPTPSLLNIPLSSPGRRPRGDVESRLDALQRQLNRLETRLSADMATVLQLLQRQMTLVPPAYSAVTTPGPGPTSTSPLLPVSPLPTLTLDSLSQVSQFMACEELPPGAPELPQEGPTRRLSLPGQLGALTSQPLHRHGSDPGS", "assay": "hERG channel activity", "type": "biochemical"}}, "note": "Read-outs that look alike come from different tables or passages of the source. Ends that are not written are not given here."}
{"sequence": "KEFLHPSKVDLPR [SOR-C13]", "values": [{"measurement": "Cmax", "setting": "[1]; 2.75 mg/kg, Cohort 4: 2.75 mg/kg, N = 6, Cycle 1 Day 10, read-out: Peak plasma concentration, Median", "value": 232, "unit": "ng/mL"}, {"measurement": "Tmax", "setting": "[1]; 2.75 mg/kg, Cohort 4: 2.75 mg/kg, N = 6, Cycle 1 Day 10, read-out: Time to peak plasma concentration, Mean (SD)", "value": 36.6, "unit": "min"}, {"measurement": "Tmax", "setting": "[1]; 2.75 mg/kg, Cohort 4: 2.75 mg/kg, N = 6, Cycle 1 Day 10, read-out: Time to peak plasma concentration, Median", "value": 30, "unit": "min"}, {"measurement": "AUC(0-t)", "setting": "[1]; 4.13 mg/kg, Cohort 5: 4.13 mg/kg, N = 3, Cycle 1 Day 1, read-out: AUCtau, Mean (SD)", "value": 78.4, "unit": "ng·h/mL"}, {"measurement": "AUC(0-t)", "setting": "[1]; 4.13 mg/kg, Cohort 5: 4.13 mg/kg, N = 3, Cycle 1 Day 1, read-out: AUCtau, Median", "value": 23.4, "unit": "ng·h/mL"}, {"measurement": "Cmax", "setting": "[1]; 4.13 mg/kg, Cohort 5: 4.13 mg/kg, N = 3, Cycle 1 Day 1, read-out: Peak plasma concentration, Mean (SD)", "value": 139, "unit": "ng/mL"}, {"measurement": "Cmax", "setting": "[1]; 4.13 mg/kg, Cohort 5: 4.13 mg/kg, N = 3, Cycle 1 Day 1, read-out: Peak plasma concentration, Median", "value": 42, "unit": "ng/mL"}, {"measurement": "Tmax", "setting": "[1]; 4.13 mg/kg, Cohort 5: 4.13 mg/kg, N = 3, Cycle 1 Day 1, read-out: Time to peak plasma concentration, Mean (SD)", "value": 25, "unit": "min"}, {"measurement": "Tmax", "setting": "[1]; 4.13 mg/kg, Cohort 5: 4.13 mg/kg, N = 3, Cycle 1 Day 1, read-out: Time to peak plasma concentration, Median", "value": 15, "unit": "min"}, {"measurement": "AUC(0-t)", "setting": "[1]; 4.13 mg/kg, Cohort 5: 4.13 mg/kg, N = 3, Cycle 1 Day 3, read-out: AUCtau, Mean (SD)", "value": 373, "unit": "ng·h/mL"}, {"measurement": "AUC(0-t)", "setting": "[1]; 4.13 mg/kg, Cohort 5: 4.13 mg/kg, N = 3, Cycle 1 Day 3, read-out: AUCtau, Median", "value": 403, "unit": "ng·h/mL"}, {"measurement": "Cmax", "setting": "[1]; 4.13 mg/kg, Cohort 5: 4.13 mg/kg, N = 3, Cycle 1 Day 3, read-out: Peak plasma concentration, Mean (SD)", "value": 369, "unit": "ng/mL"}, {"measurement": "Cmax", "setting": "[1]; 4.13 mg/kg, Cohort 5: 4.13 mg/kg, N = 3, Cycle 1 Day 3, read-out: Peak plasma concentration, Median", "value": 403, "unit": "ng/mL"}, {"measurement": "Tmax", "setting": "[1]; 4.13 mg/kg, Cohort 5: 4.13 mg/kg, N = 3, Cycle 1 Day 3, read-out: Time to peak plasma concentration, Mean (SD)", "value": 35, "unit": "min"}, {"measurement": "Tmax", "setting": "[1]; 4.13 mg/kg, Cohort 5: 4.13 mg/kg, N = 3, Cycle 1 Day 3, read-out: Time to peak plasma concentration, Median", "value": 45, "unit": "min"}, {"measurement": "AUC(0-t)", "setting": "[1]; 4.13 mg/kg, Cohort 5: 4.13 mg/kg, N = 3, Cycle 1 Day 8, read-out: AUCtau, Mean (SD)", "value": 197, "unit": "ng·h/mL"}, {"measurement": "AUC(0-t)", "setting": "[1]; 4.13 mg/kg, Cohort 5: 4.13 mg/kg, N = 3, Cycle 1 Day 8, read-out: AUCtau, Median", "value": 245, "unit": "ng·h/mL"}, {"measurement": "Cmax", "setting": "[1]; 4.13 mg/kg, Cohort 5: 4.13 mg/kg, N = 3, Cycle 1 Day 8, read-out: Peak plasma concentration, Mean (SD)", "value": 212, "unit": "ng/mL"}, {"measurement": "Cmax", "setting": "[1]; 4.13 mg/kg, Cohort 5: 4.13 mg/kg, N = 3, Cycle 1 Day 8, read-out: Peak plasma concentration, Median", "value": 264, "unit": "ng/mL"}, {"measurement": "Tmax", "setting": "[1]; 4.13 mg/kg, Cohort 5: 4.13 mg/kg, N = 3, Cycle 1 Day 8, read-out: Time to peak plasma concentration, Mean (SD)", "value": 18.2, "unit": "min"}, {"measurement": "Tmax", "setting": "[1]; 4.13 mg/kg, Cohort 5: 4.13 mg/kg, N = 3, Cycle 1 Day 8, read-out: Time to peak plasma concentration, Median", "value": 4.8, "unit": "min"}, {"measurement": "AUC(0-t)", "setting": "[1]; 4.13 mg/kg, Cohort 5: 4.13 mg/kg, N = 3, Cycle 1 Day 10, read-out: AUCtau, Mean (SD)", "value": 273, "unit": "ng·h/mL"}, {"measurement": "AUC(0-t)", "setting": "[1]; 4.13 mg/kg, Cohort 5: 4.13 mg/kg, N = 3, Cycle 1 Day 10, read-out: AUCtau, Median", "value": 324, "unit": "ng·h/mL"}, {"measurement": "Cmax", "setting": "[1]; 4.13 mg/kg, Cohort 5: 4.13 mg/kg, N = 3, Cycle 1 Day 10, read-out: Peak plasma concentration, Mean (SD)", "value": 280, "unit": "ng/mL"}, {"measurement": "Cmax", "setting": "[1]; 4.13 mg/kg, Cohort 5: 4.13 mg/kg, N = 3, Cycle 1 Day 10, read-out: Peak plasma concentration, Median", "value": 295, "unit": "ng/mL"}, {"measurement": "Tmax", "setting": "[1]; 4.13 mg/kg, Cohort 5: 4.13 mg/kg, N = 3, Cycle 1 Day 10, read-out: Time to peak plasma concentration, Mean (SD)", "value": 21.6, "unit": "min"}, {"measurement": "AUC(0-t)", "setting": "[1]; 6.2 mg/kg, Cohort 6: 6.2 mg/kg, N = 6, Cycle 1 Day 1, read-out: AUCtau, Mean (SD)", "value": 1130, "unit": "ng·h/mL"}, {"measurement": "AUC(0-t)", "setting": "[1]; 6.2 mg/kg, Cohort 6: 6.2 mg/kg, N = 6, Cycle 1 Day 1, read-out: AUCtau, Median", "value": 570, "unit": "ng·h/mL"}, {"measurement": "Cmax", "setting": "[1]; 6.2 mg/kg, Cohort 6: 6.2 mg/kg, N = 6, Cycle 1 Day 1, read-out: Peak plasma concentration, Mean (SD)", "value": 1150, "unit": "ng/mL"}, {"measurement": "Cmax", "setting": "[1]; 6.2 mg/kg, Cohort 6: 6.2 mg/kg, N = 6, Cycle 1 Day 1, read-out: Peak plasma concentration, Median", "value": 682, "unit": "ng/mL"}, {"measurement": "Tmax", "setting": "[1]; 6.2 mg/kg, Cohort 6: 6.2 mg/kg, N = 6, Cycle 1 Day 1, read-out: Time to peak plasma concentration, Mean (SD)", "value": 56.6, "unit": "min"}, {"measurement": "AUC(0-t)", "setting": "[1]; 6.2 mg/kg, Cohort 6: 6.2 mg/kg, N = 6, Cycle 1 Day 3, read-out: AUCtau, Mean (SD)", "value": 1100, "unit": "ng·h/mL"}, {"measurement": "AUC(0-t)", "setting": "[1]; 6.2 mg/kg, Cohort 6: 6.2 mg/kg, N = 6, Cycle 1 Day 3, read-out: AUCtau, Median", "value": 904, "unit": "ng·h/mL"}, {"measurement": "Cmax", "setting": "[1]; 6.2 mg/kg, Cohort 6: 6.2 mg/kg, N = 6, Cycle 1 Day 3, read-out: Peak plasma concentration, Mean (SD)", "value": 1020, "unit": "ng/mL"}, {"measurement": "Cmax", "setting": "[1]; 6.2 mg/kg, Cohort 6: 6.2 mg/kg, N = 6, Cycle 1 Day 3, read-out: Peak plasma concentration, Median", "value": 843, "unit": "ng/mL"}, {"measurement": "Tmax", "setting": "[1]; 6.2 mg/kg, Cohort 6: 6.2 mg/kg, N = 6, Cycle 1 Day 3, read-out: Time to peak plasma concentration, Mean (SD)", "value": 27.7, "unit": "min"}, {"measurement": "Tmax", "setting": "[1]; 6.2 mg/kg, Cohort 6: 6.2 mg/kg, N = 6, Cycle 1 Day 3, read-out: Time to peak plasma concentration, Median", "value": 9.9, "unit": "min"}, {"measurement": "AUC(0-t)", "setting": "[1]; 6.2 mg/kg, Cohort 6: 6.2 mg/kg, N = 6, Cycle 1 Day 8, read-out: AUCtau, Mean (SD)", "value": 1340, "unit": "ng·h/mL"}, {"measurement": "AUC(0-t)", "setting": "[1]; 6.2 mg/kg, Cohort 6: 6.2 mg/kg, N = 6, Cycle 1 Day 8, read-out: AUCtau, Median", "value": 843, "unit": "ng·h/mL"}, {"measurement": "Cmax", "setting": "[1]; 6.2 mg/kg, Cohort 6: 6.2 mg/kg, N = 6, Cycle 1 Day 8, read-out: Peak plasma concentration, Mean (SD)", "value": 1440, "unit": "ng/mL"}, {"measurement": "Cmax", "setting": "[1]; 6.2 mg/kg, Cohort 6: 6.2 mg/kg, N = 6, Cycle 1 Day 8, read-out: Peak plasma concentration, Median", "value": 826, "unit": "ng/mL"}, {"measurement": "Tmax", "setting": "[1]; 6.2 mg/kg, Cohort 6: 6.2 mg/kg, N = 6, Cycle 1 Day 8, read-out: Time to peak plasma concentration, Mean (SD)", "value": 45.8, "unit": "min"}, {"measurement": "AUC(0-t)", "setting": "[1]; 6.2 mg/kg, Cohort 6: 6.2 mg/kg, N = 6, Cycle 1 Day 10, read-out: AUCtau, Mean (SD)", "value": 1430, "unit": "ng·h/mL"}, {"measurement": "AUC(0-t)", "setting": "[1]; 6.2 mg/kg, Cohort 6: 6.2 mg/kg, N = 6, Cycle 1 Day 10, read-out: AUCtau, Median", "value": 830, "unit": "ng·h/mL"}, {"measurement": "Cmax", "setting": "[1]; 6.2 mg/kg, Cohort 6: 6.2 mg/kg, N = 6, Cycle 1 Day 10, read-out: Peak plasma concentration, Mean (SD)", "value": 1380, "unit": "ng/mL"}, {"measurement": "Cmax", "setting": "[1]; 6.2 mg/kg, Cohort 6: 6.2 mg/kg, N = 6, Cycle 1 Day 10, read-out: Peak plasma concentration, Median", "value": 794, "unit": "ng/mL"}, {"measurement": "Tmax", "setting": "[1]; 6.2 mg/kg, Cohort 6: 6.2 mg/kg, N = 6, Cycle 1 Day 10, read-out: Time to peak plasma concentration, Mean (SD)", "value": 36.1, "unit": "min"}, {"measurement": "Tmax", "setting": "[1]; 6.2 mg/kg, Cohort 6: 6.2 mg/kg, N = 6, Cycle 1 Day 10, read-out: Time to peak plasma concentration, Median", "value": 30, "unit": "min"}, {"measurement": "modulation of channel activity", "setting": "[2]", "value": "no modulation of channel activity"}, {"measurement": "modulation of channel activity", "setting": "hERG", "value": "no modulation of channel activity"}]}
